Experimental data from ChEMBL document CHEMBL1150396, “New PPARgamma ligands based on 2-hydroxy-1,4-naphthoquinone: computer-aided design, synthesis, and receptor-binding studies” (Bioorg Med Chem Lett, 2008).

The molecules below were run against T1, Peroxisome proliferator-activated receptor gamma (Rattus norvegicus, UniProt O88275) (assay: Displacement of [3H]rosigliatzone from PPARgamma in rat adipocytes).
T1 sequence (O88275 whole entry): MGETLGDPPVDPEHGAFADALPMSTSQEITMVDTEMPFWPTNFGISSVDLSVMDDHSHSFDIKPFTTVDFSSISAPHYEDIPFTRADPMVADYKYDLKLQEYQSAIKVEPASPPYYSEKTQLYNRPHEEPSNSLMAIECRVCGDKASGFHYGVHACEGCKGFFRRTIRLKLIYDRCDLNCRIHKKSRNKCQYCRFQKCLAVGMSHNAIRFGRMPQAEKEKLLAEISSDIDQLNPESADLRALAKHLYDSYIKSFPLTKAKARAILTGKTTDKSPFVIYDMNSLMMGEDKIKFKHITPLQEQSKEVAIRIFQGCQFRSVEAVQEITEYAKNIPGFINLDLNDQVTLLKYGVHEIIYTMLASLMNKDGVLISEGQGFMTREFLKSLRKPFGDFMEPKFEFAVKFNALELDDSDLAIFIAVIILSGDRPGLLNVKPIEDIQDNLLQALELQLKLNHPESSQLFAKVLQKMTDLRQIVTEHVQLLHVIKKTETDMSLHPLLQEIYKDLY
Assay type: cell-based

SMILES	IC50 [nM]
O=C1C(O)=C(Cc2ccc(OCc3ccccc3F)cc2)C(=O)c2ccccc21	200
O=C1C(O)=C(Cc2ccc(OCc3ccccc3)cc2)C(=O)c2ccccc21	3600
CCc1ccc(CCOc2ccc(CC3SC(=O)NC3=O)cc2)nc1 (centres undefined) [PIOGLITAZONE]	700

Results, then the molecule that gave them:

IC50 [nM]	SMILES
1900	N#Cc1ccc(OCCOc2ccc(CC3=C(O)C(=O)c4ccccc4C3=O)cc2)cc1
56200	COc1ccc(OCCOc2ccc(CC3=C(O)C(=O)c4ccccc4C3=O)cc2)cc1

The molecules below were run against T2, Peroxisome proliferator-activated receptor gamma (Rattus norvegicus) (UniProt O88275) (assay: Displacement of [3H]rosigliatzone from PPARgamma in rat adipocytes at 0.1 uM).
T2 sequence (whole entry): T1 sequence (O88275 whole entry)
Assay type: cell-based

SMILES	Activity [%]
O=C1C(O)=C(Cc2ccc(OCCOc3cccc4ccccc34)cc2)C(=O)c2ccccc21	< 20
O=C1C(O)=C(Cc2ccc(OCCOc3ccc4c(c3)CCC4)cc2)C(=O)c2ccccc21	< 20

The next lines start with the values.

Activity [%]	SMILES
< 20	O=C1C(O)=C(Cc2ccc(OCCOc3ccc(Cl)cc3)cc2)C(=O)c2ccccc21
< 20	Cc1ccc(OCCOc2ccc(CC3=C(O)C(=O)c4ccccc4C3=O)cc2)cc1
